What all share (assay): mass response relative to vehicle control (EMD distance of treated vs reference mass distribution minus control baseline) (% of mean reference cell mass); higher = larger drug-induced change in single-cell mass distribution (stronger response)
One test has as its system HT-29. As to the method:
(§1)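 Cancer cell lines were treated in vitro with drugs at the listed doses (about 24 h; 0.25% DMSO vehicle). Single-cell buoyant mass was measured on suspended microchannel resonator instruments with CNN image curation, 2500 cells per condition. Mass response is the Earth Mover's Distance to vehicle-treated reference cells as % of mean reference mass.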

Another test deals with MDA-MB-361. As to the method:
as §1

A further test relates to PA-TU-8902. As to the method: as §1

Counter-ions that a name gives are not always drawn. ± gives the uncertainty stated by the source.

Consider `CNC(=O)c1ccc(-c2cnc3ncc(Cc4ccc5ncccc5c4)n3n2)cc1F` [Capmatinib], for which the mass response in the test with HT-29 (0.01 µM) amounted to 1.15 ± 0.93; with HT-29 (0.1 µM), 1.02 ± 2.5; in the test with HT-29 (1 µM), 3.42 ± 3; in the test with HT-29 (10 µM), 12.2 ± 4.3.

In the case of `CC(C)(C)c1nc(-c2cccc(NS(=O)(=O)c3c(F)cccc3F)c2F)c(-c2ccnc(N)n2)s1` [Dabrafenib], the mass response was 10.7 ± 9.3 in the test with HT-29 (0.01 µM), 19.1 ± 5.2 in the test on HT-29 (0.1 µM), 24.3 ± 3.3 in the test with HT-29 (1 µM) and 16.9 ± 6.3 in the test on HT-29 (10 µM).

Take `COc1cccc2c1C(=O)c1c(O)c3c(c(O)c1C2=O)C[C@@](O)(C(=O)CO)C[C@@H]3O[C@H]1C[C@H](N)[C@@H](O)[C@H](C)O1` [Epirubicin]: the mass response is 10.2 ± 1.1 in the test on MDA-MB-361 (0.15 µM), 10.7 ± 0.92 with MDA-MB-361 (0.625 µM), 8.33 ± 2.5 with MDA-MB-361 (2.5 µM) and 13.1 ± 3.1 in the test on MDA-MB-361 (10 µM).

As for `CO[C@H]1C[C@@H]2CC[C@@H](C)[C@@](O)(O2)C(=O)C(=O)N2CCCC[C@H]2C(=O)O[C@H]([C@H](C)C[C@@H]2CC[C@@H](OCCO)[C@H](OC)C2)CC(=O)[C@H](C)/C=C(\C)[C@@H](O)[C@@H](OC)C(=O)[C@H](C)C[C@H](C)/C=C/C=C/C=C/1C` [Everolimus], the mass response with PA-TU-8902 (0.5 µM) is 8.53 ± 1.9; in the test on PA-TU-8902 (5 µM) it was 9.89 ± 5.3; in the test with PA-TU-8902 (20 µM), 8.18 ± 4; in the test on PA-TU-8902 (50 µM), 16.6 ± 7.

Turning to `O=c1[nH]cc(F)c(=O)[nH]1` [Fluorouracil], the mass response in the test on PA-TU-8902 (25 µM) was -2.58 ± 0.15; in the test with PA-TU-8902 (50 µM), 1.92 ± 7; in the test on PA-TU-8902 (0.0001 M) it was 8.61 ± 5.8; in the test with PA-TU-8902 (0.00025 M) it was 30.2 ± 2.5.

For `CS(=O)(=O)CCNCc1ccc(-c2ccc3ncnc(Nc4ccc(OCc5cccc(F)c5)c(Cl)c4)c3c2)o1` [Lapatinib], the mass response in the test on MDA-MB-361 (0.1 µM) was found to be 0.147 ± 0.5; with MDA-MB-361 (1 µM), 6.42 ± 1.7; in the test on MDA-MB-361 (10 µM) it was 19.6 ± 1.1; with MDA-MB-361 (0.0001 M), 19.5 ± 2.4.

Take `O=C(c1cc(Cc2n[nH]c(=O)c3ccccc23)ccc1F)N1CCN(C(=O)C2CC2)CC1` [Olaparib]: the mass response with MDA-MB-361 (0.1 µM) was determined as 1.31 ± 3.8; with MDA-MB-361 (1 µM) it was 1.01 ± 3.2; in the test on MDA-MB-361 (10 µM) it was 17.9 ± 9.6; in the test with MDA-MB-361 (0.0001 M), 25 ± 4.

As to `Nc1nc2[nH]cc(CCc3ccc(C(=O)N[C@@H](CCC(=O)O)C(=O)O)cc3)c2c(=O)[nH]1` [Pemetrexed], the mass response is 14.4 ± 3.6 in the test on MDA-MB-361 (0.5 µM), 15.2 ± 2.1 in the test on MDA-MB-361 (1 µM), 19 ± 2.9 in the test on MDA-MB-361 (5 µM) and 21.8 ± 2.8 in the test on MDA-MB-361 (50 µM).

Take `CCc1c2c(nc3ccc(O)cc13)-c1cc3c(c(=O)n1C2)COC(=O)[C@]3(O)CC` [SN-38]: the mass response in the test with HT-29 (0.01 µM) worked out at 15.5 ± 0.51; in the test on HT-29 (0.1 µM), 11.1 ± 2.3; in the test with HT-29 (1 µM), 10.6 ± 0.61; in the test on HT-29 (10 µM), 18 ± 3.

For `Cn1ncnc1[C@H]1c2n[nH]c(=O)c3cc(F)cc(c23)N[C@@H]1c1ccc(F)cc1` [Talazoparib], the mass response is 8.83 ± 4.3 in the test with MDA-MB-361 (0.2 µM), 8.66 ± 2.9 in the test on MDA-MB-361 (2 µM), 11.8 ± 3.6 in the test with MDA-MB-361 (20 µM) and 13.1 ± 6.4 in the test with MDA-MB-361 (50 µM).

With `CC(=O)Nc1cccc(-n2c(=O)n(C3CC3)c(=O)c3c(Nc4ccc(I)cc4F)n(C)c(=O)c(C)c32)c1` [Trametinib], the mass response came out at 26.9 ± 6.7 with HT-29 (0.01 µM), 27.1 ± 3.4 in the test on HT-29 (0.1 µM), 23.5 ± 0.46 with HT-29 (1 µM) and 24.4 ± 0.46 in the test with HT-29 (10 µM).

`CCCS(=O)(=O)Nc1ccc(F)c(C(=O)c2c[nH]c3ncc(-c4ccc(Cl)cc4)cc23)c1F` [Vemurafenib]: the mass response in the test on HT-29 (0.01 µM) is -0.111 ± 1.9; in the test with HT-29 (0.1 µM) it was 2.67 ± 0.19; in the test with HT-29 (1 µM) it was 16.5 ± 2.6; with HT-29 (10 µM), 24.3 ± 2.1.

Regarding `CCC1=C[C@@H]2CN(C1)Cc1c([nH]c3ccccc13)[C@@](C(=O)OC)(c1cc3c(cc1OC)N(C)[C@H]1[C@@](O)(C(=O)OC)[C@H](OC(C)=O)[C@]4(CC)C=CCN5CC[C@]31[C@@H]54)C2` [Vinorelbine Tartrate], the mass response in the test with MDA-MB-361 (0.002 µM) stood at 0.302 ± 2.8; in the test with MDA-MB-361 (0.02 µM), 13 ± 0.57; in the test on MDA-MB-361 (0.2 µM), 14.6 ± 1.1; in the test on MDA-MB-361 (2 µM), 13.1 ± 1.9.

(Values after the supplement of paper PMC9701192.)
